Test results reported in patent US8314148B2, “Selective hydroxamate based MMP inhibitors” (Novartis AG, priority 2006, dated 2012).

Key:
[1] = biological target: T1, MMP02 (Homo sapiens, UniProt P08253); assay: MMP assay, determination of IC50 (fluorescence); assay type: biochemical; settings: human MMP 0.5 nM, substrate 5 μM, 1 hour preincubation, pH 7.5
T1 sequence (P08253 110-660): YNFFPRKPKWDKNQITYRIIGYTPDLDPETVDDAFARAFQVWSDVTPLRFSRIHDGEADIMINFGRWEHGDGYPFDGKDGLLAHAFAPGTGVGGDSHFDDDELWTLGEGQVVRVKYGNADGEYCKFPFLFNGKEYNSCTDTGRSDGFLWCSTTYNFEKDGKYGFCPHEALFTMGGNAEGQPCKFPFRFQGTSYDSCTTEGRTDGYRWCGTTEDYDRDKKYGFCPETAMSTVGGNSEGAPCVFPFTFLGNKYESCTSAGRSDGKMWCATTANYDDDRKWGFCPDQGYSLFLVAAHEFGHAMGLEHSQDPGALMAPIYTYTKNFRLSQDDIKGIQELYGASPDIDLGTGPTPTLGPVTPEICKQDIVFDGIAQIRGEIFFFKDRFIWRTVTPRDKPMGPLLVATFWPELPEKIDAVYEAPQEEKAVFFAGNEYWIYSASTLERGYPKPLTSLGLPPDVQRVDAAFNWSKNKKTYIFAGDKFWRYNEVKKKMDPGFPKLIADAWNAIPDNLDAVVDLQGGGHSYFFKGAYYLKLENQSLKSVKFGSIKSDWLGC
Description: (§1) The activities of a compound according to the present invention can be assessed by the following methods well-described in the art. Determination of IC50 values in MMP assays
(§2) Dose-response curves are prepared in DMSO/water solution (90/10, v/v) in 96-well plate format and stored at 4° C. up to 24 hours prior to analysis. In all steps poly-propylene pipette tips are changed avoiding cross-contamination or compound carry over. On the day of the assay, each compound is further diluted (1/33.33; 96-well plate format) in water containing 0.05% CHAPS to 3-times the desired assay concentration. In the assay for each compound, 11 concentrations ranging from 30 to 0.0003 μM are investigated (0.0003, 0.001, 0.003, 0.01, 0.03, 0.1, 0.3, 1, 3, 10, 30 μM). A three-fold concentrated MMP solution is prepared in two-fold concentrated assay buffer 100 mM Tris-HCl buffer, pH 7.5 containing 100 mM NaCl, 10 mM CaCl2, 10 μM ZnCl2, 0.05% Brij-35 and dispensed in 96-well Greiner plates. Similarly a three-fold concentrated substrate solution (15 μM) is prepared in 100 mM Tris-HCl buffer, pH 7.5 containing 100 mM NaCl, 10 mM CaCl2, 10 μM ZnCl2, 0.05% Brij-35 and dispensed in 96-well Greiner plates. Transfer of compounds, substrate and enzyme from 96-well plates to 384-well plates is made using either Cybi™well or Cybi™disk devices.
(§3) The assay procedure is the following, in each well, 10 μL water/CHAPS (±test compound) is added, followed by 10 μL human MMP solution (final assay concentration 0.5 nM). After 1 hour of incubation at room temperature the assay is started by addition of 10 μL substrate solution (final concentration 5 μM).
(§4) The reaction is allowed to proceed for 1 hours at ambient temperature (˜20-22° C.). At the end of the incubation the fluorescence is measured as described above.
(§5) The apparent inhibition constant, IC50, is determined from the plot of percentage of inhibition vs. inhibitor concentration using non-linear regression analysis software (XLfit, Vers. 3.0.5; ID Business Solution Ltd., Guildford, Surrey, UK).

[2] = biological target: MMP09 (Homo sapiens, UniProt P14780); assay: MMP assay, determination of IC50 (fluorescence); assay type: biochemical; settings: human MMP 0.5 nM, substrate 5 μM, 1 hour preincubation, pH 7.5
Sequence of MMP09 (P14780 94-707): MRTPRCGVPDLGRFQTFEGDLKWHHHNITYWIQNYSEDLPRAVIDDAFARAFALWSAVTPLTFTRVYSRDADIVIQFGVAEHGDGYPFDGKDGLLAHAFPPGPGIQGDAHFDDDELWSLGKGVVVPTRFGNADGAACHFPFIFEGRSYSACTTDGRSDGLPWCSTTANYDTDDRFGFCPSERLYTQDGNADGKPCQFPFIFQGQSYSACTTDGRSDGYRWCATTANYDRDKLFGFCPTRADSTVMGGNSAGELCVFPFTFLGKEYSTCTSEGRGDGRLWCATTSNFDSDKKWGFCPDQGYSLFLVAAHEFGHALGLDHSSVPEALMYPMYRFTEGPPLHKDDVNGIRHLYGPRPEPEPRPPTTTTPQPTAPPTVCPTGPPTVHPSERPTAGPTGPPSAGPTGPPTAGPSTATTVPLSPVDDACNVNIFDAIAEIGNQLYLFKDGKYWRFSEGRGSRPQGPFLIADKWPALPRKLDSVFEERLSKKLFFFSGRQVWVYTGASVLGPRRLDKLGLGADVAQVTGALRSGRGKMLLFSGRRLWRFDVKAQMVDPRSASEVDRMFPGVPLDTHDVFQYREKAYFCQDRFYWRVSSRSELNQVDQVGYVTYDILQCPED
Description: as §1, §2, §3, §4, §5

[3] = biological target: MMP12 (Homo sapiens, UniProt P39900); assay: MMP assay, determination of IC50 (fluorescence); assay type: biochemical; settings: human MMP 0.5 nM, substrate 5 μM, 1 hour preincubation, pH 7.5
Sequence of MMP12 (P39900 106-470): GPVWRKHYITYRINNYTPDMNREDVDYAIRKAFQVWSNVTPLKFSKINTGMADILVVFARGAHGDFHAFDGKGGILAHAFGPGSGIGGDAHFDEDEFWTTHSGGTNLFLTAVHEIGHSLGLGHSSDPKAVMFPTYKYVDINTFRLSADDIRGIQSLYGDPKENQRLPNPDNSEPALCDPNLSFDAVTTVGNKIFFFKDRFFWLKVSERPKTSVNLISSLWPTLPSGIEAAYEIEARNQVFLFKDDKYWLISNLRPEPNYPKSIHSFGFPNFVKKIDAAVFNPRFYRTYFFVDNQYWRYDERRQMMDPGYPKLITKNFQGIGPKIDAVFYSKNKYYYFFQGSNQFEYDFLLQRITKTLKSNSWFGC
Description: as §1, §2, §3, §4, §5

[4] = biological target: MMP13 (Homo sapiens, UniProt P45452); assay: MMP assay, determination of IC50 (fluorescence); assay type: biochemical; settings: human MMP 0.5 nM, substrate 5 μM, 1 hour preincubation, pH 7.5
Description: as §1, §2, §3, §4, §5

IC50 [1] [nM] | IC50 [2] [nM] | IC50 [3] [nM] | IC50 [4] [nM] | melting point [°C] | Compound
> 30000 | > 30000 | 650 | 25500 | – | CCCN([C@@H](C(=O)NO)C(C)(C)C)S(=O)(=O)c1cccc(C(=O)NC)c1 [Example 2-38]
– | – | – | – | 115.5 to 116.5 | COc1cccc(S(=O)(=O)N(CCC(C)C)[C@@H](C(=O)NO)C(C)(C)C)c1 [Example 1, N-isoamyl-N-(3 Methoxyphenylsulfonyl)D-tert-leucine hydroxamic acid]
> 30000 | > 30000 | 400 | 6550 | – | CCCN([C@@H](C(=O)NO)C(C)(C)C)S(=O)(=O)c1cccc(C(=O)OC)c1 [Example 2-39]
1700 | 725 | 17.5 | 95 | – | CC(C)CCN([C@@H](C(=O)NO)C(C)(C)C)S(=O)(=O)c1cccc(Cl)c1 [Example 2-4]
≥ 40300 | 22700 | 300 | 4950 | – | COc1cccc(S(=O)(=O)N(CC(=O)N(C)C)[C@@H](C(=O)NO)C(C)(C)C)c1 [Example 2-27]
3150 | 3100 | 50 | 1550 | – | CC(C)CCN([C@@H](C(=O)NO)C(C)(C)C)S(=O)(=O)c1cccc(N)c1 [Example 2-28]
12500 | 3500 | 145 | 800 | – | COc1cccc(S(=O)(=O)N(Cc2ccccc2)[C@@H](C(=O)NO)C(C)(C)C)c1 [Example 2-23]
3700 | 6900 | 65 | 1200 | – | CC(C)CCN([C@@H](C(=O)NO)C(C)(C)C)S(=O)(=O)c1cccc(NC(=O)NC(C)C)c1 [Example 2-34]
10200 | 17400 | 35 | 1150 | – | CC(=O)Nc1cccc(S(=O)(=O)N(CCC(C)C)[C@@H](C(=O)NO)C(C)(C)C)c1 [Example 2-13]
28300 | 12500 | 226 | 2440 | – | CCOc1cccc(S(=O)(=O)N(CCC(C)C)[C@@H](C(=O)NO)C(C)C)c1 [Example 2-17]
7700 | 400 | 5.5 | 70 | – | COc1cccc(S(=O)(=O)N(CCCc2cccnc2)[C@@H](C(=O)NO)C(C)(C)C)c1 [Example 5]
11100 | 1500 | 17.5 | 250 | – | COc1cccc(S(=O)(=O)N(CC(C)C)[C@@H](C(=O)NO)C(C)(C)C)c1 [Example 2-6]
1350 | 900 | 1.5 | 50 | – | CCNC(=O)Nc1cccc(S(=O)(=O)N(CCCN2CCCCC2)[C@@H](C(=O)NO)C(C)(C)C)c1 [Example 4-4]
8750 | 3700 | 55 | 850 | – | COC(=O)CN([C@@H](C(=O)NO)C(C)(C)C)S(=O)(=O)c1cccc(OC)c1 [Example 2-26]
3000 | 300 | 2 | 30 | – | COc1cccc(S(=O)(=O)N(CCO)[C@@H](C(=O)NO)C(C)(C)C)c1 [Example 6]
13900 | 7830 | 225 | 500 | – | CCc1cccc(S(=O)(=O)N(CCC(C)C)[C@@H](C(=O)NO)C(C)(C)C)c1 [Example 2-7]
